# Experimental data from article PMC9632859, “Modulation of NMDA receptor activity by CR4056, an imidazoline-2 receptor ligand with analgesic properties” (Frontiers in Pain Research, 2022).
# Where “and” joins values, the source holds several entries; their conditions need not be identical. Identical values can stand only once.
# Tests used:
# PKCε translocation = system: PKCε translocation; design: method as in PMID 31454418; details: activated sensory neurons, cultured DRG; cited from earlier work
# [1] = target: GluN1-GluN2A containing receptors (Homo sapiens, UniProt Q05586+Q12879); test: NMDA-evoked currents in JM4C fibroblasts expressing GluN1-GluN2A; assay type: cell-based; details: for IC50: 0.1–100 µM, read-out: IC50 of reduction of NMDA-evoked current, GluN1-GluN2A; for Emax: read-out: efficacy (Eff, maximal effect) on NMDA-evoked current, GluN1-GluN2A
# Procedure: (§1) Mouse connective tissue fibroblasts JM4C cells stably transfected with NR1A/NR2A or NR1A/NR2B human NMDA inducible receptors were kindly donated by Dr. Paul Whiting, Merk Sharp / Dohme (UK). They were grown in Dulbecco's Modified Basal Eagle's medium (DMEM) with Na+ pyruvate, 4,500 mg glucose and glutamine. For growing, DMEM was added with geneticin 1 mg/ml (Sigma) and foetal bovine serum 10% (Celbio). One day before experiment, fibroblasts confluent dishes were split with trypsin-EDTA 0.05% (Euroclone) and plated at the density of 0.5 × 10^6 cells/ml in 2 ml dishes containing an inducing DMEM with ketamine (final concentration 0.015%, Gellini International, Italy) and 25 nM dexamethasone (Sigma Aldrich) to induce NMDA receptors expression.
# (§2) Recordings were performed in cortical and cerebellar neurons after 7–9 days in culture or in spinal cord slices from postnatal rats. All recordings were performed at room temperature, under voltage-clamp in the whole-cell configuration of the patch-clamp technique ([19]). […] Currents were amplified with an Axopatch 1D amplifier (Axon Instruments, Foster City. CA), filtered at 5 kHz, digitized at 10 kHz.
# (§3) The chamber used for recording from cultured neurons was continuously perfused at 2 ml/min with an extracellular medium composed of (mM): 145 NaCl, 5 KCl, 1 CaCl2, 5 Hepes, 5 Glucose, and 20 Sucrose, pH 7.4 with NaOH. Intracellular solution contains (mM): 140 KCl, 3 MgCl2, 5 EGTA, 5 Hepes, and 2 ATP-Na, pH 7.3 with KOH.
# (§4) All drugs were applied directly by gravity through a Y-tube perfusion system ([21]) in the experiments performed in culture while in slice experiments CR4056 and the receptor antagonists were bath perfused.
# (§5) Increasing concentrations of CR4056 (0.1–100 µM) were applied to NMDA-evoked currents in fibroblasts expressing GluN1- GluN2A or GluN1- GluN2B subunits (Figure 3A).
# NMDA receptor [2] = test: NMDA-evoked currents in primary culture of cortical neurons, whole-cell patch-clamp; assay type: cell-based, rat; details: for IC50: NMDA 100 µM + glycine 10 µM, read-out: IC50 of reduction of NMDA-evoked current; for maximal reduction of NMDA current (efficacy): from dose-response curve
# Procedure: (§6) Primary cultures of cortical (CX) and cerebellar (CB) neurons were prepared from newborn (CX) or seven days old (CB) Sprague-Dawley rats Briefly, cells from cortex and cerebellum were dispersed with trypsin (0.24 mg/ml; Sigma Aldrich, Milan, Italy) and plated at a density of 0.8 × 10^6 cells/ml on 35 mm Falcon dishes coated with poly-L-lysine (10 µg/ml, Sigma Aldrich). Cells were plated in basal Eagle's Medium (BME; Celbio, Milan, Italy), supplemented with 10% fetal bovine serum (Celbio), 2 mM glutamine, 25 mM KCl and 100 µg/ml gentamycin (Sigma Aldrich) and maintained at 37°C in 5% CO2. After 24 h in vitro, the medium was replaced with 1:1 mixture of BME and Neurobasal medium (Celbio, Milan) containing 2% B27 supplement, 1% antibiotic, and 0.25% glutamine (Invitrogen). At […] in vitro (DIV5), cytosine arabinofuranoside (Ara-C) was added at final concentration of 1 µM. Thereafter, half of the medium was replaced twice a week with Neurobasal medium containing 2% B27 supplement, 1% antibiotic, and 0.25% glutamine.
# as §2, §3, §4
# When CR4056 (10 µM) was delivered inside the cell through the patch pipette the response to NMDA application was recorded at time 0 (just after breaking inside the cell) and after 1.5, 3, 4.5, 6 min. The NMDA-evoked current was recorded at these time intervals and the amplitude of the current was measured.
# The effect of CR 4056 in primary neuronal cultures was calculated as % variation of the NMDA-evoked current after application of the drug. A negative variation means a reduction of the control current. Off-line data analysis, curve fitting, and figure preparation were performed with Clampfit 9 or 10 (Molecular Devices, Sunnyvale, CA, United States), Origin 4.1 (Microcal, Northampton, MA, United States), and Microsoft Office (Microsoft). SigmaPlot 11 (SYSTAT, Palo Alto, CA, United States) and GraphPad Prism 9.3 (GraphPad Software, San Diego, CA, United States) were used for statistical analysis.
# NMDA-evoked currents were recorded in primary culture of cortical neurons using the patch-clamp technique in the whole cell configuration. Fast application of NMDA (100 µM) and Glycine (10 µM) elicited an inward current that was decreased by CR4056 (Figure 1A); the effect was reversible and dose-dependent (Figure 1B). […] (Figure 1B).
# GluN1-GluN2B receptors = GluN1-GluN2B receptors (Homo sapiens, UniProt Q05586+Q13224); test: NMDA-evoked currents in JM4C fibroblasts expressing GluN1-GluN2B; assay type: cell-based; details: for IC50: 0.1–100 µM, read-out: IC50 of reduction of NMDA-evoked current, GluN1-GluN2B; for Emax: read-out: efficacy (Eff, maximal effect) on NMDA-evoked current, GluN1-GluN2B
# Procedure: as §1, §2, §3, §4, §5
# [3] = system: lamina II neuron excitability; test: Current-clamp recording of summated EPSPs and action potentials on repetitive dorsal root stimulation; assay type: cell-based, rat
# Source text: (§7) Sprague–Dawley rats (male and female at postnatal days P15-P23) were anaesthetized with isoflurane and decapitated. The spinal cord and vertebrae were rapidly removed and placed in ice-cold dissecting Krebs' solution (composition in mM: 90 NaCl, 50 sucrose, 2.5 KCl, 25 NaHCO3, 1 NaH2PO4·H2O, 25 glucose, 6 MgCl2, 1.5 CaCl2, 1 kynurenic acid), bubbled with carboxygen (95% O2, 5% CO2). The lumbar part of the spinal cord was isolated, embedded in low melting point agarose (3% w/v, Thermo Fisher Scientific, Waltham, United States), and transverse slices (500 µm thick) were obtained using a vibrating microtome (WPI, Sarasota, United States). Slices were incubated in oxygenated incubation Krebs' solution (composition in mM: 125 NaCl, 2.5 KCl, 25 NaHCO3, 1 NaH2PO4·H2O, 25 glucose, 6 MgCl2, 1.5 CaCl2) at 32°C for 30 min and then used for recording.
# (§8) Neurons in spinal cord slices were visualized using an Axioskop microscope (Zeiss, Oberkochen, Germany), fitted with Nomarski optics and connected to a CCD camera (Dage-MTI, Michigan City, United States). Patch-clamp recordings were performed by using thick-walled borosilicate pipettes (3–5 MOhm resistance). Data were recorded and acquired using a MultiClamp 700A amplifier and the pClamp 10 software (Molecular Devices, Sunnyvale, United States). Sampling rate was 10 kHz, and data were filtered at 2–5 kHz. The dorsal root attached to each slice was stimulated using a suction electrode. Stimulus duration was 0.1 ms, stimulus intensity was 500 µA, able to activate both A and C primary afferent fibers ([20]). Extracellular field potentials were recorded by positioning a glass pipette (3–5 µm diameter, filled with Krebs' extracellular solution) on lamina II in spinal cord slices. Extracellular synaptic potentials were evoked by dorsal root stimulation, as described above, and amplified by using a Multiclamp 700A amplifier (Molecular Devices, Sunnyvale, United States).
# For the experiments on neurons in slices the following Krebs' extracellular solution was used (composition in mM): 125 NaCl, 2.5 KCl, 25 NaHCO3, 1 NaH2PO4·H2O, 25 glucose, 1 MgCl2, 2 CaCl2. A cesium-based internal solution was used during the voltage-clamp experiments (composition in mM: 120 caesium methanesulfonate, 10 sodium methanesulfonate, 10 EGTA, 1 CaCl2, 10 Hepes, 5 lidocaine N-ethyl bromide quaternary salt-Cl, 5 MgATP, pH adjusted to 7.2 with CsOH, osmolarity 290 mOsmol L^−1), while a potassium-based solution was utilized for the experiments in current-clamp (composition in mM: 120 potassium methanesulfonate, 10 NaCl, 10 EGTA, 1 CaCl2, 10 Hepes, 5 MgATP, pH adjusted to 7.2 with KOH, osmolarity 300 mOsmol L^−1).
# Finally, we tested whether CR4056 was able to depress lamina II neuron excitability in response to repetitive stimulation of the dorsal root. […]
# NMDA receptor [4] = test: NMDA-evoked currents in primary culture of cerebellar neurons, whole-cell patch-clamp; assay type: cell-based, rat; details: CR4056 10 µM, glycine 1-500 µM, one-way ANOVA
# Procedure: as §6, with “Thereafter, half of the medium was replaced twice a week with Neurobasal medium containing 2% B27 supplement, 1% antibiotic, and 0.25% glutamine.” left out
# The effect of CR 4056 in primary neuronal cultures was calculated as % variation of the NMDA-evoked current after application of the drug. […]
# Glycine is an important co-agonist of the NMDA receptor. To test the dependence of CR4056 modulation on glycine concentration we measured the reduction of NMDA current by CR4056 (10 µM) in the presence of 1, 5, 10, 50, 100, and 500 µM glycine.
# [5] = system: NMDA-mediated postsynaptic excitatory currents (EPSCs); test: NMDA EPSCs evoked by dorsal root stimulation in lamina II neurons of spinal cord slices; assay type: cell-based, rat
# Source text: as §7
# as §8, with “Extracellular synaptic potentials were evoked by dorsal root stimulation, as described above, and amplified by using a Multiclamp 700A amplifier (Molecular Devices, Sunnyvale, United States).” left out
# We next investigated the modulatory effect of CR4056 on NMDA-mediated postsynaptic excitatory currents (EPSCs) recorded from lamina II neurons in rat spinal cord slices. […] To isolate NMDA EPSCs (recorded in voltage clamp at +40 mV), AMPA, GABAA and glycine receptors were blocked by NBQX (10 µM), bicuculline (10 µM), and strychnine (0.5 µM), respectively. […]
# [6] = system: field potentials from dorsal horn laminae I-II (mainly mediated by AMPARs); test: Extracellular field potentials evoked by dorsal root stimulation in spinal cord slices; assay type: cell-based, rat; details: 6 slices; p > 0.05
# Source text: as §7, with “Slices were incubated in oxygenated incubation Krebs' solution (composition in mM: 125 NaCl, 2.5 KCl, 25 NaHCO3, 1 NaH2PO4·H2O, 25 glucose, 6 MgCl2, 1.5 CaCl2) at 32°C for 30 min and then used for recording.” left out
# Neurons in spinal cord slices were visualized using an Axioskop microscope (Zeiss, Oberkochen, Germany), fitted with Nomarski optics and connected to a CCD camera (Dage-MTI, Michigan City, United States). […] Data were recorded and acquired using a MultiClamp 700A amplifier and the pClamp 10 software (Molecular Devices, Sunnyvale, United States). […] Extracellular field potentials were recorded by positioning a glass pipette (3–5 µm diameter, filled with Krebs' extracellular solution) on lamina II in spinal cord slices. […]
# To determine whether the effect of CR4056 on NMDA EPSCs was due to a decrease of glutamate release from primary afferents or to a modulation of NMDARs, we recorded extracellular field potentials evoked by dorsal root stimulation (Figure 4E). […]
# [7] = CR4056 10 µM, 4 pulses 5–10 Hz, 500 µA
# GluN1-GluN2B receptors, sequence (Q13224 27-1484, other chains not shown): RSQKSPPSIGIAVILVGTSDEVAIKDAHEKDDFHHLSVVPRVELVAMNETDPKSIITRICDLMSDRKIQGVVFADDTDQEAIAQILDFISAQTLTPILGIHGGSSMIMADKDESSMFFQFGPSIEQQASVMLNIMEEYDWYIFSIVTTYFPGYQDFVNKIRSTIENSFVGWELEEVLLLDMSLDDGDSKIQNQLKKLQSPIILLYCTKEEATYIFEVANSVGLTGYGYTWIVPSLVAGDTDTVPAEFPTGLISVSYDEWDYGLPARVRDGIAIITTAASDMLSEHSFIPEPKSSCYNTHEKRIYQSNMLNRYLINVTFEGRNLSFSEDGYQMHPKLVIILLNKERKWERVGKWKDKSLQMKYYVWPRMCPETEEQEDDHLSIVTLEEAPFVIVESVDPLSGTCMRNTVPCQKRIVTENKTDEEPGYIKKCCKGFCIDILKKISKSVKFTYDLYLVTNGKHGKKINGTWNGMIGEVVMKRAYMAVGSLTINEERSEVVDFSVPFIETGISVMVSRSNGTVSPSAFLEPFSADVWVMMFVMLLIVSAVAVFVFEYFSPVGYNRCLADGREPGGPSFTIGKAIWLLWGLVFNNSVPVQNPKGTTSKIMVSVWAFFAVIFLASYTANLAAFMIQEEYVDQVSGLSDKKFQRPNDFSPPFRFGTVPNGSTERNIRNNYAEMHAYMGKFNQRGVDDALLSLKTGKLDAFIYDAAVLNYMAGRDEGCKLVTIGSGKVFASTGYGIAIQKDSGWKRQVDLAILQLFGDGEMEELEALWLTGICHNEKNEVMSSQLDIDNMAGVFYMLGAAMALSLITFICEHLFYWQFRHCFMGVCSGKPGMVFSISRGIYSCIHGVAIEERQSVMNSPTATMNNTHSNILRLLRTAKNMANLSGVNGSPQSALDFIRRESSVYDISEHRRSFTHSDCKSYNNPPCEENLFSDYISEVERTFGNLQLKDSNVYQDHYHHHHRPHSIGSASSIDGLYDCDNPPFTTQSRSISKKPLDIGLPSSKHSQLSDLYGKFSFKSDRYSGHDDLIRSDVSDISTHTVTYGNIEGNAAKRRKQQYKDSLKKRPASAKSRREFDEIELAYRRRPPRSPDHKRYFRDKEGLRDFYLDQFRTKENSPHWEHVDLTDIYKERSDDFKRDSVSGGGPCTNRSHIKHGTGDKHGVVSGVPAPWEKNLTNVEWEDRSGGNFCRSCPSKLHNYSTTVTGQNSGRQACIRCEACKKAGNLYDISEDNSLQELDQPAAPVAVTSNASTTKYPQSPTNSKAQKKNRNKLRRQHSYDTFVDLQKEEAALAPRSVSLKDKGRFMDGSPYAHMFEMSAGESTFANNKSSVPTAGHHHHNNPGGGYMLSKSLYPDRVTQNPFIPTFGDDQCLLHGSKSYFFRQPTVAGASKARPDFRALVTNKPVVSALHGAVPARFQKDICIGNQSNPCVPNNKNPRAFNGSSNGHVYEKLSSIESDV
# GluN1-GluN2A containing receptors, sequence (Q12879 23-1464, other chains not shown): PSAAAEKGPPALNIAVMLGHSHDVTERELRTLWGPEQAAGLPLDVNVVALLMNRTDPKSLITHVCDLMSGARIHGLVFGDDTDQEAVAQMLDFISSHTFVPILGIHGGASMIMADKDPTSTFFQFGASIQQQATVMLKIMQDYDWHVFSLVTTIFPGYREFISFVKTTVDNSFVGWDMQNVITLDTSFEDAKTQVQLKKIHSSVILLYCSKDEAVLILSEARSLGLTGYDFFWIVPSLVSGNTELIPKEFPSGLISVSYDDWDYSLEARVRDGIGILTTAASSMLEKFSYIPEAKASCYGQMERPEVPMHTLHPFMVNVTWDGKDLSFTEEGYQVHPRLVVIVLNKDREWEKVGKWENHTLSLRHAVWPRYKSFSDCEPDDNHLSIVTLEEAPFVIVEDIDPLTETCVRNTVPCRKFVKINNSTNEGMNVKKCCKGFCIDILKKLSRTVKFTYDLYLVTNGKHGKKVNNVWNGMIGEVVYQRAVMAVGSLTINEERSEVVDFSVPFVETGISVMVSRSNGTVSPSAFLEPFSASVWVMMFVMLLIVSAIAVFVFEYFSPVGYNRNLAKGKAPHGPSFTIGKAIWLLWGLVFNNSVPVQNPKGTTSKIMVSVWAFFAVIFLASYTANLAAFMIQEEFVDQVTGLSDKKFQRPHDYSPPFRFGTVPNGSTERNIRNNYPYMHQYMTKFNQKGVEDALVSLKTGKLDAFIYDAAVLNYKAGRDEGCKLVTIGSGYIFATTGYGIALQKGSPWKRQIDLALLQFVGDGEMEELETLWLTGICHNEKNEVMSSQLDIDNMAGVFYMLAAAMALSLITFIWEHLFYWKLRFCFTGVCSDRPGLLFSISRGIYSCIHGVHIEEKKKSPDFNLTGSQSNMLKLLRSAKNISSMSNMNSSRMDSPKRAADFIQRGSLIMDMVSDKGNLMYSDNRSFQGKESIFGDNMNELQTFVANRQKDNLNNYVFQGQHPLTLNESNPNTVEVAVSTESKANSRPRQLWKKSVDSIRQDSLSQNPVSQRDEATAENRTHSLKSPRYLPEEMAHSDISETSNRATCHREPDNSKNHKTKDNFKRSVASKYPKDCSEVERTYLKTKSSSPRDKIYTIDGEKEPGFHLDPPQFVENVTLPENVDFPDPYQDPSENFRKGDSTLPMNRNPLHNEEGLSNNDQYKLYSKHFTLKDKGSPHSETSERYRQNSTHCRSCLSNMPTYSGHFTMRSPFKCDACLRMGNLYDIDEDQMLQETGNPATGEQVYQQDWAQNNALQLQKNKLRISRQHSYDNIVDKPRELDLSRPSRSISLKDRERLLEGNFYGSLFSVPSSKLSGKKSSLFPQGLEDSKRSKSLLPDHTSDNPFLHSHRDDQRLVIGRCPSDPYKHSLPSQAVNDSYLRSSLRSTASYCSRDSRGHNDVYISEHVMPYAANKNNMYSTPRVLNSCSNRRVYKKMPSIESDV
compound,measurement,setting,value
"Cl.c1ccc2oc(C3=NCCN3)cc2c1 [2-BFI, 2-(2-Benzofuranyl)-2-imidazoline hydrochloride, reference compound]",effect on PKCε translocation,PKCε translocation,ineffective
same,IC50,[1],23 ± 12 µM
same,Emax,[1],-39 ± 6%
same,IC50,NMDA receptor [2]; cortical neurons,8 µM and 13 µM
same,maximal reduction of NMDA current (efficacy),NMDA receptor [2]; cortical neurons,76 ± 2% and 48 ± 5%
same,IC50,GluN1-GluN2B receptors,11 ± 6 µM
same,Emax,GluN1-GluN2B receptors,-73 ± 7%
"c1ccc(-c2ncc3cc(-n4ccnc4)ccc3n2)cc1 [CR4056, 2-phenyl-6-(1H-imidazol-1yl)quinazoline]",effect on PKCε translocation,PKCε translocation,reduces PKCε translocation
same,change of area of the summated EPSPs,[3]; [7],−29.7 ± 5.4%
same,change of mean number of action potentials generated at each train,[3]; [7],−50.9 ± 12.6%
same,"EPSP area in CR, mean","[3]; during CR4056, N 7, control mean 11858.457",8924.714 mV*ms
same,"N action potentials/train in CR, median","[3]; during CR4056, N 7, control median 0.310",0.150
same,IC50,[1],21 ± 12 µM
same,Emax,[1],-47 ± 3%
same,effect on NMDA current at high glycine concentrations,NMDA receptor [4],significatively reduced
same,average reduction in NMDA EPSC amplitude,"[5]; CR4056 10 µM, +40 mV, NBQX, bicuculline, strychnine present, 7 neurons",26.3 ± 4.2%
same,"EPSC amplitude in WASH, mean","[5]; after washing of CR4056, N 7",514.986 pA
same,"EPSC amplitude in CR, mean","[5]; during CR4056, N 7, control mean 597.629",475.443 pA
same,"change of amplitude of NMDA currents, compound dialyzed inside the cell via patch pipette","NMDA receptor [2]; 10 µM intracellular, p > 0.05, t-test",did not change significantly
same,CR4056 effect on NMDA current when co-applied with idazoxan,NMDA receptor [2]; CR4056 10 µM + idazoxan 10 µM,does not change CR4056 effect
same,reduction of current evoked by increasing NMDA concentration (type of antagonism),"NMDA receptor [2]; CR4056 10 µM, NMDA 10 to 100 µM",reduced to the same extent
same,reduction of NMDA currents in control vs after pertussis toxin,NMDA receptor [2]; PTX 200 ng/ml for 24 h,no statistically significant differences
same,effect on NMDA current at high glycine concentrations,"NMDA receptor [2]; cortical neurons, CR4056 10 µM, glycine 1-500 µM, one-way ANOVA",significatively reduced
same,IC50,NMDA receptor [2]; cortical neurons,5.3 ± 0.1 µM
same,maximal reduction of NMDA current (efficacy),NMDA receptor [2]; cortical neurons,84.4 ± 6%
same,reduction of NMDA-evoked current at +40 mV,"NMDA receptor [2]; holding potential +40 mV, CR4056 10 µM",−31 ± 1%
same,reduction of NMDA-evoked current at −40 mV,"NMDA receptor [2]; holding potential −40 mV, CR4056 10 µM",−33 ± 4%
same,effect on field potential area,[6],did not affect
same,IC50,GluN1-GluN2B receptors,11 ± 2 µM
same,Emax,GluN1-GluN2B receptors,-86 ± 6%
"c1ccc2c(c1)OCC(C1=NCCN1)O2 (stereo not shown) [Idazoxan, reference compound]",effect on NMDA-elicited current applied alone,NMDA receptor [2]; 10 µM,did not affect
